# Experimental data from ChEMBL document CHEMBL1144034, “Synthesis and anti-protozoal activity of C2-substituted polyazamacrocycles” (Bioorg Med Chem Lett, 2008).
# Legend:
# [1] = Cytotoxicity against HEK cells; type: cell-based; conditions: Homo sapiens, HEK293
# [2] = system: Plasmodium falciparum; assay: Antiprotozoal activity against Plasmodium falciparum; type: functional, organism-based
# [3] = system: Trypanosoma brucei; assay: Antiprotozoal activity against Trypanosoma brucei by Alamar blue assay; type: functional, organism-based
# [4] = Partition coefficient, log P of the compound; type: physicochemical; conditions: octanol/water
Structure (SMILES),EC50 [1],EC50 [2],EC50 [3],logP [4]
C1CNCCNCCNCCN1,5 µM,> 100 µM,> 200 µM,-1.8
COc1ccc(C2CNCCNCCNCCN2)cc1 (configuration not stated),> 200 µM,26 µM,> 200 µM,-0.1
c1ccc2c(c1)Cc1cc(C3CNCCNCCNCCN3)ccc1-2 (configuration not stated),26 µM,1.3 µM,2.6 µM,1.8
FC(F)(F)c1ccc(C2CNCCNCCNCCN2)cc1 (configuration not stated),73 µM,5 µM,6.8 µM,0.8
c1ccc2cc(C3CNCCNCCNCCN3)ccc2c1 (configuration not stated),> 200 µM,1.7 µM,6.9 µM,1
FC(F)(F)c1cc(C2CNCCNCCNCCN2)cc(C(F)(F)F)c1 (configuration not stated),61 µM,4.8 µM,6.8 µM,1.7
c1csc(C2CNCCNCCNCCN2)c1 (configuration not stated),> 200 µM,46.7 µM,72.3 µM,-0.4
Clc1ccc(C2CNCCNCCNCCN2)cc1 (configuration not stated),181 µM,2.3 µM,2.8 µM,0.8
O=[N+]([O-])c1ccc(C2CNCCNCCNCCN2)cc1 (configuration not stated),> 200 µM,13 µM,> 200 µM,-0.4
c1ccc2c(c1)ccc1cc(C3CNCCNCCNCCN3)ccc12 (configuration not stated),,< 1.5 µM,,2.2
CC(C)(C)C1CNCCNCCNCCN1 (configuration not stated),> 200 µM,> 100 µM,133 µM,-0.1
CCN(CC)CCCC(C)Nc1ccnc2cc(Cl)ccc12 (configuration not stated) [CHLOROQUINE],,0.008 µM,,
N=C(N)c1ccc(OCCCCCOc2ccc(C(=N)N)cc2)cc1 [PENTAMIDINE],,,0.006 µM,
c1ccc(C2CNCCNCCNCCN2)cc1 (configuration not stated),> 200 µM,26 µM,> 200 µM,-0.2
Brc1ccc(C2CNCCNCCNCCN2)cc1 (configuration not stated),> 200 µM,5.8 µM,21.8 µM,0.7
